According to US6211182A, “Imidazole compounds substituted with a six or seven membered heterocyclic ring containing two nitrogen atoms” (Schering Corporation, priority 1999, dated 2001):

Tested on: mice
Assay: not given
Conditions: Yokoyama et al. 1993; cited from earlier work

Row | Compound | duration of each phase of convulsion | electroconvulsive threshold
1 | S=C(NC1CCCCC1)N1CCC(c2cnc[nH]2)CC1 [thioperamide] | decreased the duration of each phase of convulsion | raised the electroconvulsive threshold

Target: T1, H3 receptor (Cavia porcellus, UniProt Q9JI35)
T1 construct: The source of the H3 receptors in this experiment was guinea pig brain; from tissue; host or cells: guinea pig brain membranes
T1 sequence (Q9JI35 whole entry): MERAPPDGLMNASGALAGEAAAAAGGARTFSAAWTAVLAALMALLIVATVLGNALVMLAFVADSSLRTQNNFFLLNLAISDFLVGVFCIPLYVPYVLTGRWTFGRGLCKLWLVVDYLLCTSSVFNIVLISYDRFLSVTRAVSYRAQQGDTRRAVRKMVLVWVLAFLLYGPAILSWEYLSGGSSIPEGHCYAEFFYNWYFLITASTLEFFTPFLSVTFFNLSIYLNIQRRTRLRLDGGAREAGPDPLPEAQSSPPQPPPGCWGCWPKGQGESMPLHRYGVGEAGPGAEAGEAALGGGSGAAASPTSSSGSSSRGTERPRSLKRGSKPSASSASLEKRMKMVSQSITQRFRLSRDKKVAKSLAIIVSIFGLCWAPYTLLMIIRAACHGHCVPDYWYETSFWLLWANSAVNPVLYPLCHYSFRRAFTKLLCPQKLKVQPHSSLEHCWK
Assay: H3 Receptor Binding Assay (guinea pig brain membranes, [3H]R-α-methylhistamine or [3H]-N-methylhistamine)
Conditions: 3 nM radioligand, 30° C., 30 min
Procedure: Procedure for H3 Receptor Binding Assay
The source of the H3 receptors in this experiment was guinea pig brain. The animals used weighed 400-600 g. The tissue was homogenized using a Polytron in a solution of 50 mM Tris, pH 7.5. The final concentration of tissue in the homogenization buffer was 10% w/v. The homogenates were centrifuged at 1000×g for 10 min. in order to remove clumps of tissue and debris. The resulting supernatants were then centrifuged at 50,000×g for 20 min. in order to sediment the membranes, which were next washed 3 times in homogenization buffer (50,000×g for 20 min. each). The membranes were frozen and stored at -70° C. until needed.
All compounds to be tested were dissolved in DMSO and then diluted into the binding buffer (50 mM Tris, pH 7.5) such that the final concentration was 2 μg/mL with 0.1% DMSO. Membranes were then added (400 μg of protein) to the reaction tubes. The reaction was started by the addition of 3 nM [^3 H]R-α-methylhistamine (8.8 Ci/mmol) or [^3 H]-N-methylhistamine (80 Ci/mmol) and incubated at 30° C. for 30 min. Bound ligand was separated from unbound ligand by filtration, and the amount of radioactive ligand bound to the membranes was quantitated by liquid scintillation spectrometry. All incubations were performed in duplicate and the standard error was less than 10% in all instances.

Row | Ki | Compound
2 | 0.038 µM | O=C(NCCCCc1c[nH]cn1)C1CNCCN1Cc1ccc(Cl)cc1 (stereo not drawn)
3 | 0.045 µM | Clc1ccc(CN2CCN(Cc3ccc(Cl)cc3)C(CCc3c[nH]cn3)C2)cc1 (stereo not drawn)
4 | 0.025 µM | O=C(/C=C/c1cccnc1)N1CCN(CCCCc2c[nH]cn2)CC1
5 | 0.006 µM | O=C(Nc1cccc(Cl)c1)N1CCN(CCCCc2c[nH]cn2)CC1
6 | 0.014 µM | O=C(Nc1ccc(C(F)(F)F)cc1)N1CCN(CCCCc2c[nH]cn2)CC1
7 | 0.02 µM | O=C(NCCCCc1c[nH]cn1)C1CN(Cc2ccc(Cl)cc2)CCN1Cc1ccc(Cl)cc1 (stereo not drawn)
8 | 0.006 µM | O=C(/C=C/c1ccccc1)N1CCN(CCCCc2c[nH]cn2)CC1
9 | 0.039 µM | O=C(NCCCCCc1c[nH]cn1)C1CNCCN1 (stereo not drawn)
10 | 0.032 µM | CCOC(=O)C1CNCCN1CCCCc1c[nH]cn1 (stereo not drawn)
11 | 0.046 µM | O=C(NCCCCc1c[nH]cn1)C1CN(Cc2ccc(Cl)cc2)CCN1 (stereo not drawn)
12 | 0.046 µM | CCOC(=O)C1CN(CCCCc2c[nH]cn2)CCN1Cc1ccc(Cl)cc1 (stereo not drawn)

Same assay, conditions: unit given as mM

Row | Ki | Compound
13 | 0.026 µM | CCOC(=O)C1CN(Cc2ccc(Cl)cc2)CCN1CCCCc1c[nH]cn1 (stereo not drawn)

Tested on: rat
Assay: not given
Conditions: Clapham et al. 1993; cited from earlier work

Row | Compound | short-term memory and reversal learning
14 | S=C(NC1CCCCC1)N1CCC(c2cnc[nH]2)CC1 [thioperamide] | can improve short-term memory and reversal learning in the rat
